The target of this assay is T1, Human factor D (Homo sapiens, UniProt P00746).
T1 construct: purified from human serum; purchased Complement Technology, Inc; host or cells: human serum (natural source)
The assay can be described thus: biochemical.

T1 sequence (P00746 26-253): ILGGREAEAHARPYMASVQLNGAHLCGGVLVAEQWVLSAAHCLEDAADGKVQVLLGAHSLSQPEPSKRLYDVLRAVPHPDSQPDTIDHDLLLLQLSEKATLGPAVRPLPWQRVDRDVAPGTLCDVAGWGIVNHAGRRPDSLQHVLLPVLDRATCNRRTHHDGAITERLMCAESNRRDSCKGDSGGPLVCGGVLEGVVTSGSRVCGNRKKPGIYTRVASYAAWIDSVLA

For orientation: IC50 means the concentration needed to halve the response being measured. Regarding `CCOP(=O)(OCC)c1ccc2c(C(C)=O)cn(CC(=O)N3[C@@H]4CCC[C@@H]4C[C@H]3C(=O)NCc3cccc(Cl)c3F)c2c1` [Compound 5, diethyl 3-acetyl-1-(2-((2S,3aR,6aR)-2-(3-chloro-2-fluorobenzylcarbamoyl)hexahydrocyclopenta [b]pyrrol-1(2H)-yl)-2-oxoethyl)-1H-indol-6-ylphosphonate], the IC50 was 1 to 10 µM.
